Reference: US20080045419A1, “Screening Assay” (priority 2006, published 2008)
“Also recorded” adds a separate entry of the source.

System: Rad17 self-interaction (Rad17/Rad17)
Test: DIPI assay (DNA-damage-induced increased protein interaction), two-hybrid colony growth on -His medium
Assay type: cell-based, Saccharomyces cerevisiae
Conditions: for Rad17 self-interaction response in DIPI assay (colony growth on -His medium): wild-type reporter strain CG1945, pCAD1-Rad17/pGBT9-Rad17, plate assay
Text: A reporter strain is co-transformed with Rad17-Gal4-DNA-binding-domain and Rad17-Gal4-transcriptional-activation-domain fusions (“bait” and “prey” plasmids). Enhanced protein-protein interaction is visualized by activation of a Gal4responsive chromosomal reporter gene construct required for histidine synthesis (HIS3) (FIG. 1).
These cells are exposed to a DNA-damaging agent in form of a gradient on a histidine-omission plate. […] It should also be mentioned that the use of a blue color marker (LacZ gene) is possible. It is not unusual that the context of a promoter affects the specific interaction and may be easily addressed by switching to one of a wide variety or readily available commercial and non-commercial expression systems.
[pCAD1-Rad17/pGBT9-Rad17], respectively. […] Responses in a wild-type reporter strain (WT, left two plates) and a mutant deleted for topoisomerase I (top1δ, right) are compared. Cells of the reporter strain (CG1945), previously co-transformed with Rad17 bait/prey Gal4-fusions (pCAD1-Rad17/pGBT9-Rad17) were plated as indicated. The genotoxic agent CPT or DMSO (solvent control) was applied on a filter paper.
Using manual replicating on large petri dishes, these were transferred to -His plates that had been inoculated with cells of a reporter strain, co-transformed with Rad17 bait/prey plasmids as described.
DIPI assay was performed in a high-throughput mode. The Petri dish assay was adapted to the 96 well plate format in order to use conventional high-throughput machinery. Two protocols were explored (FIG. 4). In both cases, the selective agar medium lacking leucine, tryptophan and histidine was poured in the plate wells. In protocol 1, cell suspension was pipeted on top of the plate and, after drying, a sample of CPT. In protocol 2, cells were mixed with agar and pipeted, resulting in a cell-containing agar layer. CPT was added on top. After 3-4 days, the plates were evaluated for colony growth.
All cells will be exposed to a CPT concentration that leads to some low amount of colony formation on selective medium. Briefly, the haploid two-hybrid reporter strain CG1945 (4) is co-transformed with plasmids pGBT9Rad17 and pCAD1-Rad17. […] The selected co-transformant is grown up to stationary phase in yeast synthetic medium (SM) without tryptophan and leucine to retain both plasmids. Incubation period is typically two days at 30° C. with shaking. The standard recipe for yeast SM calls for 2% dextrose, 0.67% yeast nitrogen base with ammonium sulfate/without amino acids (e.g. from US Biological) and a -Trp-Leu amino acid dropout mix (Qbiogene, Inc.).

Structure (SMILES) | Rad17 self-interaction response in DIPI assay (colony growth on -His medium) | number of colonies in DIPI assay, 96 well plate format (96 well plate, after 3-4 days, compared to control (DMSO), listed as CPT) | Rad17 homomeric interaction response in DIPI assay (top1δ background (topoisomerase I deleted)) | Rad17 self-interaction response in DIPI assay (colony growth on -His medium) (listed as CPT)
CC[C@@]1(OC(=O)CN)C(=O)OCc2c1cc1n(c2=O)Cc2cc3ccccc3nc2-1.Cl [NSC606985, glycine 4-ethyl-3,4,12,14-tetrahydro-3,14-dioxo-1H-pyrano[3′, 4′:6,7]indolizino[1,2-b]quinolin-4-yl ester, (S)-monohydrochloride] | increasing Rad17 self-interaction |  |  | 
CC[C@@]1(O)C(=O)OCc2c1cc1n(c2=O)Cc2cc3ccccc3nc2-1 [camptothecin] | very responsive; also recorded: increasing Rad17 self-interaction | number of colonies increased significantly; also recorded: number of colonies is increased | absence of increased homomeric Rad17 interaction | positive CPT response
